Measurements: patent US20080300138A1, “Dioxazinyl-Substituted Thienylsulphonylaminocarbonyl Compounds” (priority 2004, published 2008)

How the values were obtained:
[1] = tested on: Amaranthus; experiment: Post-emergence test/greenhouse; format: in vivo; details: 80 g of ai/ha, WP sprayed at one-leaf stage, scored visually after about 3 weeks, 100% = plants have died, 0% = like control plants
Experimental: (§1) Seeds of mono- and dicotyledonous weed and crop plants are placed in sandy loam soil in wood fiber pots, covered with soil and cultivated in a greenhouse under good growth conditions. 2 to 3 weeks after sowing, the trial plants are treated at the one-leaf stage. The test compounds, formulated as wettable powders (WP), are sprayed at various dosages with a water application rate of 800 I/ha (converted) and with addition of 0.2% of welting agent onto the green parts of the plants. After the trial plants have stood in the greenhouse for about 3 weeks under optimum growth conditions, the effect of the products is scored visually in comparison to untreated controls (herbicidal effect in percent (%): 100% effect=plants have died, 0% effect=like control plants).

[2] = tested on: Cyperus; experiment: Post-emergence test/greenhouse; format: in vivo; details: 80 g of ai/ha, WP sprayed at one-leaf stage, scored visually after about 3 weeks, 100% = plants have died, 0% = like control plants
Experimental: as §1

[3] = tested on: Echinochloa; experiment: Post-emergence test/greenhouse; format: in vivo; details: 80 g of ai/ha, WP sprayed at one-leaf stage, scored visually after about 3 weeks, 100% = plants have died, 0% = like control plants
Experimental: as §1

[4] = tested on: Lolium; experiment: Post-emergence test/greenhouse; format: in vivo; details: 80 g of ai/ha, WP sprayed at one-leaf stage, scored visually after about 3 weeks, 100% = plants have died, 0% = like control plants
Experimental: as §1

[5] = tested on: Setaria; experiment: Post-emergence test/greenhouse; format: in vivo; details: 80 g of ai/ha, WP sprayed at one-leaf stage, scored visually after about 3 weeks, 100% = plants have died, 0% = like control plants
Experimental: as §1

[6] = tested on: Sinapis; experiment: Post-emergence test/greenhouse; format: in vivo; details: 80 g of ai/ha, WP sprayed at one-leaf stage, scored visually after about 3 weeks, 100% = plants have died, 0% = like control plants
Experimental: as §1

[7] = tested on: Stellaria; experiment: Post-emergence test/greenhouse; format: in vivo; details: 80 g of ai/ha, WP sprayed at one-leaf stage, scored visually after about 3 weeks, 100% = plants have died, 0% = like control plants
Experimental: as §1

[8] = tested on: weeds; experiment: Post-emergence test (summary in words); format: in vivo, mono- and dicotyledonous weed plants; details: greenhouse, result in words
Experimental: as §1

Structure (SMILES) | herbicidal effect in percent, Amaranthus [1] | herbicidal effect in percent, Cyperus [2] | herbicidal effect in percent, Echinochloa [3] | herbicidal effect in percent, Lolium [4] | herbicidal effect in percent, Setaria [5] | herbicidal effect in percent, Sinapis [6] | herbicidal effect in percent, Stellaria [7] | effectiveness against weeds [8]
COc1nc(C)nc(NC(=O)NS(=O)(=O)c2c(C3=NOCCO3)csc2C)n1 [Example 1, N-(4-methoxy-6-methyl-1,3,5-triazin-2-yl)-N′-(4-(5,6-dihydro-[1,4,2]-dioxazin-3-yl)-2-methylthien-3-ylsulfonyl)urea] | 90% | 100% | 90% | 90% | 90% | 90% | 90% | highly effective
COc1nn(C)c(=O)n1C [Example 6] | 90% | 80% | 80% | 90% | 80% | 80% | 90% | highly effective
CCOc1nn(C)c(=O)n1C [Example 7] | 90% | 90% | 90% | 90% | 90% | 80% | 90% | highly effective
